According to patent publication US20070023364A1, “Tetrasilver Tetraoxide as Disinfective Agent for Cryptosporidium” (priority 2005, published 2007):
Where “and” joins values, the source holds several entries; their conditions need not be identical. Equal entries are not always repeated. Where two headings read alike, the source gives them in different places.

Legend:
Cryptosporidium oocysts = assay: Iodine exposure of Cryptosporidium oocysts (killing); assay type: cell-based; settings: iodine up to 100 ppm (saturation level), 30 and 60 min exposure
Description: (§1) Test studies confirmed these observations using doses of 5 and 15 ppm of iodine against three waterborne pathogens (Escherichia coli, Enterococcus faecalis and Pseudomonas aeruginosa). […] Unfortunately, experiments using iodine even up to 100 ppm (saturation level) were ineffective in killing Cryptosporidium oocysts when exposed for 30 and 60 min. periods, respectively.

[1] = test system: Cryptosporidium parvum oocysts
Source text: Excystation, i.e., the release of sporozoites from the oocysts, was used to assess viability of the Cryptosporidium samples. COREXIT is 2-butoxyethanol (ethyleneglycol monobutyl ether), butyl cellosolve, butyl glycol, glycol ether eb. Other ethers similar to ethyleneglycol monobutyl ether may be used. This dispersant is composed of about 48% nonionic surfactants, including ethoxylated sorbitan mono- and trioleates (Tween 80 and Tween 85) and sorbitan monooleate (Span 80), about 35% anionic surfactants, including sodium dioctyl sulfosuccinate (AOT), and about 17% ethylene glycol monobutyl ether as a solvent EMULPHOR is an emulsifier derivative of corn oil. EMULPHOR may also be used rather than ALKAMUS. ALKAMUS is a polyethoxylated castor oil 40 mole ethoxlate. EMULPHOR from BASF, is a high molecular weight ether sulphate.

[2] = test system: Escherichia coli, Enterococcus faecalis and Pseudomonas aeruginosa; assay: Iodine disinfection of waterborne bacterial pathogens; assay type: cell-based; settings: 5 ppm iodine
Description: as §1

Cryptosporidium = settings: ozone-exposed Cryptosporidium, accepted by USEPA; cited from earlier work
avian species = settings: USEPA scientific findings; cited from earlier work
[3] = test system: Cryptosporidium parvum oocysts; remark: listed apart in the source
Description: Disinfection was assessed using cell culture infectivity as the test, this procedure being more definitive than excystation. […] The 90% inactivation is a Log10 reduction of 1.0.
Infectivity in cell cultures was used in this study. Although excystation is an acceptable way to assay for live sporozoites, infectivity in cell cultures is a definitive assay generally accepted by the scientific community for assessing Cryptosporidium oocyst viability/non-viability. This assay is virtually equivalent to using living mammals to confirm infectious organisms, but it provides better quantitation of viable/infectious organisms.

[4] = activated tetrasilver tetraoxide; cited from earlier work
E. coli = settings: activated TTO, kill within 10 min or less; cited from earlier work
aquatic species = settings: USEPA scientific findings; cited from earlier work
[5] = 3 mg/L TTO, 15 mg/L persulfate, 1% cocktail, 60 min
[6] = 2 and 3 mg/L activated TTO, irrespective of cocktail used
[7] = activated 2 mg/L TTO in 1.0% cocktail, 60 min (study with 2, 5, 10 mg/L)
[8] = 2 ppm tetrasilver tetraoxide and 10 ppm potassium monopersulfate, excystation

II [iodine]
killing of Cryptosporidium oocysts (Cryptosporidium oocysts): ineffective | inactivation of oocysts ([1]; saturated iodine solution with 1% cocktail of COREXIT and ALKAMUS EL 620, 3 hours): ineffective | log10 reduction ([2]; within 5 min): 6 log10 | log10 inactivation ([2]; within 10 min of exposure): ≤ 8 log10

O=[O+][O-] [ozone]
Log10 reduction (Cryptosporidium): 2.0 Log 10

[Ag+].[Ag+].[Ag+].[Ag+].[O-2].[O-2].[O-2].[O-2] [tetrasilver tetraoxide]
toxicity to avian species (avian species): practically non-toxic | Average Infectious Oocysts × 100,000 ([3]; 1 mg/L TTO): 68 × 100,000 | Average Log10 Reduction of Viable Oocysts (Inactivation) ([3]; 1 mg/L TTO): 0.23 Log10 | Average Percent Oocyst Inactivation of all Variables ([3]; 1 mg/L TTO): 32.0% | Log10 reduction ([3]; 1 mg/L TTO, 0% cocktail, 60 min): 0.6 Log10 | inactivation ([3]; 1 mg/L TTO, 0% cocktail, 60 min, 1.2×10^7 oocysts/50 mL): 75% | Infectious Oocysts × 100,000 using 1% Cocktail ([3]; 1 mg/L TTO, 5 mg/L persulfate, 1% cocktail): 100 × 100,000 | Average Infectious Oocysts × 100,000 ([3]; 2 mg/L TTO): 35 × 100,000 | Average Log10 Reduction of Viable Oocysts (Inactivation) ([3]; 2 mg/L TTO): 0.83 Log10 | Average Percent Oocyst Inactivation of all Variables ([3]; 2 mg/L TTO): 65.0% | Infectious Oocytes × 100,000 using 0% Cocktail ([3]; 2 mg/L TTO, 10 mg/L persulfate, 0% cocktail): 2 × 100,000 | Log10 reduction ([3]; 2 mg/L TTO, 10 mg/L persulfate, 0% cocktail, 60 min): 1.8 Log10 | Infectious Oocysts × 100,000 using 1% Cocktail ([3]; 2 mg/L TTO, 10 mg/L persulfate, 1% cocktail): 35 × 100,000 | Average Infectious Oocysts × 100,000 ([3]; 3 mg/L TTO): 13 × 100,000 | Average Log10 Reduction of Viable Oocysts (Inactivation) ([3]; 3 mg/L TTO): 1.2 Log10 | Average Percent Oocyst Inactivation of all Variables ([3]; 3 mg/L TTO): 87.0% | Log10 reduction ([3]; 3 mg/L TTO, 0% cocktail, 60 min): 1.3 Log10 | Infectious Oocysts × 100,000 using 1% Cocktail ([3]; 3 mg/L TTO, 15 mg/L persulfate, 1% cocktail): 2 × 100,000 | Log10 oocyst reduction [3, 5]: 1.8 Log10 | inactivation / kill of oocysts [3, 5]: 98% | effectiveness of inactivation with cocktail versus average inactivation of infectious oocysts ([3]; 3 mg/L TTO, cocktail present): 6.5 times | Log10 reduction [3, 6]: 1.8 Log10 | kill of oocysts [3, 6]: 98% | Log10 reduction [3, 7]: 1.0 Log10 | oocyst inactivation relative to stock oocyst control [3, 7]: 90% | inactivation ([3]; cocktail concentration raised to 2%, 60 min): Lesser, but significant inactivations | Log10 reduction/inactivation ([3]; other test matrices (2, 5, 10 mg/L, with and without 1% cocktail), 60 min): less than a one Log10 reduction/inactivation | inactivation of oocysts ([1]; 1% cocktail, 3 hours, 1×10^3 oocysts in 50 ml HMEM): 19.4% | viable oocysts by excystation ([1]; 2 ppm tetrasilver tetraoxide and 10 ppm potassium monopersulfate): 1.2+/−1.1% | kill [1, 8]: 98.8% | log10 reduction in infectious Cryptosporidium parvum [1, 8]: 2 log10 and 2.0 log10 | mutagenicity [4]: not mutagenic | concentration that kills the organisms (E. coli): 1-2 ppm | toxicity to aquatic species (aquatic species): toxic
